Laboratory results reported in article PMC11591188, “First Report on Cationic Triphenylphosphonium Compounds as Mitochondriotropic H3R Ligands with Antioxidant Properties” (Antioxidants, 2024).
“And” between values parts separate entries of the source, which are not always exact repeats. Equal entries are not always repeated. Where two headings read alike, the source gives them in different places.

How the values were obtained:
[1] = Oxygen radical absorbance capacity (ORAC-FL) assay; conditions: mean Trolox equivalents with SEM, at least three independent experiments, 37 °C
Procedure: Antioxidant properties were analyzed using an oxygen radical absorbance capacity (ORAC) assay at 37 °C [27]. Solutions of the fluorescent probe fluorescein at 100 nM and test ligands at concentrations between 20 µM and 6.25 µM were incubated for 15 min in potassium phosphate buffer (75 mM, pH 7.4) protected from light in black 96-well plates at 37 °C. Then, 2,2′-azobis (2-amidinopropane) dihydrochloride (AAPH) was added as a peroxyl radical generator. The fluorescence intensity ([…]) was measured every minute for 90 min. 6-Hydroxy-2,5,7,8-tetramethylchroman-2-carboxylic acid (Trolox) was used as a standard at concentrations between 20 µM and 6.25 µM. Data were obtained in duplicate from at least three independent experiments and evaluated using GraphPad Prism 7.02. Fluorescence intensity was normalized to that of the blank (without AAPH). The area under the fluorescence decay curve for each antioxidant (AUCantioxidant) and for the negative control without antioxidants (AUCnegative control) were calculated for each concentration by summing the fluorescence intensities at each time point. AUCnegative control was subtracted from the AUCantioxidant to calculate the net AUC. Linear regression of the net AUC against the corresponding antioxidant concentration was performed. The ratios of the antioxidant and Trolox slopes from the same experiment were calculated. Thus, ORAC values were expressed as Trolox equivalents [TE], and caffeic acid was used as a reference.

SH-SY5Y cells = experiment: Cytotoxic effects on SH-SY5Y cells after 24 h (alamar blue viability assay); format: cell-based; conditions: for effects on cell viability: concentrations below 1 µM
Procedure: (§1) The cytotoxic effects of the tested ligands on neuroblastoma SH-SY5Y cells were determined using the alamar blue viability assay. SH-SY5Y cells were grown in Minimum Essential Medium Eagle (MEME) supplemented with non-essential amino acids, 10% FBS, 100 µg/mL penicillin, 100 units/mL streptomycin, and 2 mM L-glutamine at 37 °C in a humidified atmosphere of 5% CO2. SH-SY5Y cells were seeded in 96-well plates at a density of 8.0 × 10^3 cells per well and grown at 37 °C in a humidified atmosphere of 5% CO2. 24 h after seeding, the test ligands were added at concentrations between 30 µM and 1 nM in a final assay volume of 100 µL per well and incubated for 24 h. Cells treated with 1-methyl-4-phenylpyridinium iodide (MPP+) served as a positive control for cytotoxic effects. The concentration of DMSO was limited to 1% for all the assay points. The medium supplemented with the test compounds was discarded, and 100 µL of resazurin solution in RPMI-1640 medium (44 µM) was added. After two hours of incubation at 37 °C in a humidified atmosphere of 5% CO2, fluorescence intensity ([…]) was determined. Data were obtained in duplicate from at least three independent experiments. LC50 values were evaluated using GraphPad Prism 7.02. using a nonlinear regression. Mean values and 95% confidence intervals were calculated using −log(Ki) and converted to nanomolar concentrations.

[2] = as above; format: cell-based; conditions: human, SH-SY5Y neuroblastoma cells, 24 h, 95% confidence interval, at least three independent experiments, read-out: LC50
Procedure: as §1

hH3R [3] = molecular target: T1, hH3R (Homo sapiens, UniProt Q9Y5N1); experiment: hH3R radioligand displacement assay ([3H]Nα-methylhistamine, HEK-293-hH3R membranes); format: binding
T1 construct: expressed in transfected cells; host or cells: HEK-293 cells stably expressing hH3R
T1 sequence (Q9Y5N1 whole entry): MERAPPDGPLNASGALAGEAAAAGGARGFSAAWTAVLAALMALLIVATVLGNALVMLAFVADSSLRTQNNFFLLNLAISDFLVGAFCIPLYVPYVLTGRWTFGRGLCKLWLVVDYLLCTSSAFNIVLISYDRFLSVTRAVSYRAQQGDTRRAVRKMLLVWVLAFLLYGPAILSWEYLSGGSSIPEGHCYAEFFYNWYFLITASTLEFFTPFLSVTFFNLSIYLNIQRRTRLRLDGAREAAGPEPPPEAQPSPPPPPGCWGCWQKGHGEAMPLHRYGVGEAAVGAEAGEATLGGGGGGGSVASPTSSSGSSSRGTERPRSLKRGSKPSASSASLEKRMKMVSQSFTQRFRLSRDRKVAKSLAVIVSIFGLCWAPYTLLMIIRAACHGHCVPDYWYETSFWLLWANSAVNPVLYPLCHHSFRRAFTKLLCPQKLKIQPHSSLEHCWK
Procedure: Radioligand displacement assays were performed on the membrane fractions of HEK-293 cells stably expressing hH3R455, which occurs mainly in the brain, as described previously with slight modifications. HEK-293-hH3R cells were grown in Dulbecco’s Modified Eagle Medium (DMEM) supplemented with 10% FBS, 100 µg/mL penicillin, 100 units/mL streptomycin, and 10 mM HEPES solution at 37 °C in a humidified atmosphere of 5% CO2. To prepare membrane fractions, cells were washed in a phosphate-buffered saline (PBS) solution and harvested. The cells were centrifuged at 3000× g for 10 min at 4 °C and homogenized with Ultraturrax® in ice-cold binding buffer (75 mM Tris-HCl, 10 mM MgCl2, 100 mM NaCl, pH 7.4). The homogenate was centrifuged twice (20,000× g, 20 min, 4 °C) and reconstituted in an ice-cold binding buffer. Test ligands, radiolabeled ligands, and membrane fractions (20 µg/well) were added to 96-well plates to a final assay volume of 200 µL. After 90 min of incubation with shaking at 25 °C, a cell harvester was used to separate bound from free ligands by filtration through GF/B filters pretreated with 0.3% (m/v) polyethylenimine. Radioactivity was determined by liquid scintillation counting. […] The test ligands were evaluated at concentrations between 100 µM and 0.03 nM. […] Specific binding was calculated by subtracting non-specific binding from the raw data. Data were obtained in duplicate from at least three independent experiments and analyzed using GraphPad Prism 7.02. using a nonlinear regression. The Cheng–Prusoff equation was used to calculate Ki values from the IC50 values. Mean values and 95% confidence intervals were calculated using −log(Ki) and converted to nanomolar concentrations.
S4. hH3R Radioligand Displacement Assay
Radioligand displacement assays were performed on the membrane fractions of HEK-293 cells stably expressing hH3R. Cultivation of hH3R-HEK-293 cells and membrane preparation was performed as described previously. [3H]Nα-Methylhistamine was used as the radiolabeled probe at a final […]
-log(Ki) was used to calculate mean values and 95% confidence intervals.
Figure S13. hH3R competition binding curve of compounds 6a
Figure S14. hH3R competition binding curve of compounds 6b […]

hH3R [4] = molecular target: T1, hH3R; conditions: cited from earlier work
[5] = Table 2, from Ki, read-out: pKi (converted)
[6] = [3H]Nα-methylhistamine displacement on HEK-293-hH3R membranes, 95% confidence interval, at least three independent experiments, read-out: hH3R Ki

SMILES: O=C(O)/C=C/c1ccc(O)c(O)c1 [Caffeic acid, reference compound]
- ORAC [1]: 3.08 ± 0.13 TE

SMILES: c1ccc([P+](CCCCOc2ccc(OCCCN3CCCCC3)cc2)(c2ccccc2)c2ccccc2)cc1 [Compound 6a]
- effects on cell viability (SH-SY5Y cells): no significant effects on cell viability
- CC50 at 24 h [2]: 40 µM
- Ki (hH3R [3]; [5]): 0.032 µM
- Ki (hH3R [3]; [6]): 0.032 µM
- ORAC [1]: 1.04 ± 0.03 TE

SMILES: [Br-].c1ccc([P+](CCCCCOc2ccc(OCCCN3CCCCC3)cc2)(c2ccccc2)c2ccccc2)cc1 [Compound 6b, Triphenyl-(5-(4-(3-(piperidin-1-yl)propoxy)phenoxy)pentyl)phosphonium bromide]
- effects on cell viability (SH-SY5Y cells): no significant effects on cell viability
- CC50 at 24 h [2]: 21.8 µM
- Ki (hH3R [3]; [5]): 0.0176 µM
- Ki (hH3R [3]; [6]): 0.0176 µM
- ORAC [1]: 0.70 ± 0.01 TE

SMILES: c1ccc([P+](CCCCCCOc2ccc(OCCCN3CCCCC3)cc2)(c2ccccc2)c2ccccc2)cc1 [Compound 6c, Triphenyltriphenyl-(6-(4-(3-(piperidin-1-yl)propoxy)phenoxy)hexyl)phosphonium bromide]
- CC50 at 24 h [2]: 11.2 µM
- Ki (hH3R [3]; [5]): 0.0315 µM
- Ki (hH3R [3]; [6]): 0.0315 µM
- ORAC [1]: 0.54 TE and 0.54 ± 0.03 TE

SMILES: c1ccc([P+](CCCCCCCCOc2ccc(OCCCN3CCCCC3)cc2)(c2ccccc2)c2ccccc2)cc1 [Compound 6d, Triphenyltriphenyl-(8-(4-(3-(piperidin-1-yl)propoxy)phenoxy)octyl)phosphonium bromide]
- CC50 at 24 h [2]: 2.69 µM
- Ki (hH3R [3]; [5]): 0.0204 µM
- Ki (hH3R [3]; [6]): 0.0204 µM
- ORAC [1]: 0.89 ± 0.16 TE

SMILES: c1ccc([P+](CCCCCCCCCOc2ccc(OCCCN3CCCCC3)cc2)(c2ccccc2)c2ccccc2)cc1 [Compound 6e, Triphenyltriphenyl-(9-(4-(3-(piperidin-1-yl)propoxy)phenoxy)nonyl)phosphonium bromide]
- CC50 (SH-SY5Y cells; 24 h, 95% confidence interval, at least three independent experiments, read-out: LC50 (the source's name)): 0.91 µM
- CC50 at 24 h [2]: < 1 µM
- Ki (hH3R [3]; [5]): 0.0141 µM
- Ki (hH3R [3]; [6]): 0.0141 µM
- ORAC [1]: 1.07 ± 0.06 TE

SMILES: c1ccc([P+](CCCCCCCCCCOc2ccc(OCCCN3CCCCC3)cc2)(c2ccccc2)c2ccccc2)cc1 [Compound 6f, Triphenyltriphenyl-(10-(4-(3-(piperidin-1-yl)propoxy)phenoxy)decyl)phosphonium bromide]
- CC50 at 24 h [2]: 2.61 µM
- Ki (hH3R [3]; Table 2, biological activity repeated next to the IFD results, read-out: Ki): 0.0674 µM
- Ki (hH3R [3]; [6]): 0.0674 µM
- ORAC [1]: 0.59 ± 0.06 TE

SMILES: CN1CCc2ccc(OCCCN3CCCCC3)cc2C1=O [Compound I]
- Ki (hH3R [4]; Figure 1, read-out: hH3R Ki): 0.023 µM

SMILES: CCNC(=O)[C@H]1C[C@@](F)(c2ccc(CN3CCCC3)c(F)c2)C1 [PF-03654746]
- Ki (hH3R [4]; Table 2, co-crystallized ligand of 7F61, read-out: Ki): 0.0032 µM

SMILES: CNCCc1cnc[nH]1 [[^3H]N^α-methylhistamine, reference compound]
- Kd (hH3R [3]; probe used at a final concentration of 2 nM, read-out: Kd of the radiolabeled probe): 0.00308 µM
